According to article PMC6572135, “N-Methyl-D-glucamine–Calix[4]resorcinarene Conjugates: Self-Assembly and Biological Properties” (Molecules, 2019):
Values after ≈ are worked out from the molar mass of the structure shown.

Assays:
[1] = Tensiometry (surface tension, Du-Noüy ring), critical aggregation concentration; type: physicochemical; conditions: 25 °C
Experimental: In the next step of the study of GCR self-assembly the tensiometry method was used. Surface tension decreases with increasing GCR-1 concentration, but above the CAC (15 mM) the slope angle of the dependence changes (Figure 2). […] Concentration point of 15 mM, at which occurs inflection of surface tension dependence, corresponds to CAC that is in good agreement with conductometric value. The tensiometric CAC value of GCR-2 (3.3 mM) is slightly different from the conductometric value (7.9 mM, Table 1). The tensiometry method is well known to fix the changes of the mutual disposition of the molecules at the water–air interface, whereas conductometry measures the number and mobility of ions in the bulk solution. The CAC values obtained for GCR-2 are lower compared to those for GCR-1. The improved ability to aggregation of GCR-2 in comparison with GCR-1 may be due higher hydrophobicity of GCR-2. The relations between the surface tension and the concentration of macrocycle solution were illustrated in Figure 8. […] The first inflection point was determined after a concentration of 10 mM, which can be correlated with the CAC value in the aqueous environment. […] The turning point of the tensiometric curve for GCR-2 can be determined as 3.3 mM that is same as in water. […]

Hemolytic activity = type: cell-based; conditions: human erythrocyte suspension, human erythrocytes, 37 °C
Experimental: The hemolytic activity of the compounds was estimated by comparing the optical density of a solution containing a compound being tested and the blood with the optical density of the blood upon 100% hemolysis. A 10% suspension of human erythrocytes was used as an object of investigation; an erythrocytic mass with heparin was washed three times with a physiologic saline (0.9% NaCl) solution, centrifuged for 10 min at 800× g, and resuspended in the physiologic saline (0.9% NaCl) solution to a concentration of 10%. The concentrations of the compounds that corresponded to the MIC for the bacterial test strains were prepared in a physiologic saline (0.9% NaCl) solution (supplemented with 5% DMSO), and 4.5 mL of a compound at the corresponding dilution was added to 0.5 mL of a 10% suspension of erythrocytes. Samples were incubated for 1 h at 37 °C and centrifuged for 10 min at 2000× g. The release of hemoglobin was controlled by measuring the optical density of the supernatant on an AP-101 digital photoelectrocolorimeter (Apel, Kawaguchi, Japan) at 540 nm. Simultaneously, control samples were prepared: controls for zero hemolysis (blank): 0.5 mL of a 10% suspension of erythrocytes was added to a physiologic saline (0.9% NaCl) solution; 100% hemolysis: 0.5 mL of a 10% suspension of erythrocytes was added to 4.5 mL of distilled water. The experiments were repeated three times and data are presented as the mean ± standard deviation.

Chang liver cell line = assay: Cell viability evaluation (Cytell Cell Imaging); type: cell-based; conditions: 50% inhibition of cell growth, human hepatocytes, read-out: IC50 on Chang Liver Cells Line
Experimental: Cell viability of human hepatocytes cells (Chang liver cell line from the N. F. Gamaleya Research Center of Epidemiology and Microbiology) toward macrocycles was determined by means of multifunctional system Cytell Cell Imaging (GE Healthcare, Issaquah, WA, USA) using application Cell Viability BioApp and Automated Imaging BioApp. The cells were dispersed on a 96-well plate at a concentration of 200,000 cells/mL and cultivated in CO2-incubator at 37 °C. Next, the culture medium was sampled in 24 h, and 150 μL of the studied dispersions was added to each well. The experiments were repeated three times. Intact cells cultivated simultaneously with the studied ones served as a reference. The fraction of the grown-up cells was expressed in % vs. reference cells. Degree of cell growth inhibition under the influence of testing agent was calculated by equation:N (%) = (1 − Exp/Control) × 100(1) where Exp is the quantity of uninhibited cells in sample studied, Control is the quantity of uninhibited cells in control sample. Then the IC50 (concentration which caused 50% cell growth inhibition) was determined from curve of cell cultural growth versus macrocycle concentration. The experiments were repeated three times and results are presented as the mean ± standard deviation.

B. cereus 8035 = assay: Bacteriostatic activity (MIC), dilution method; type: cell-based; conditions: Bacillus cereus; B. cereus 8035, bacteriostatic activity; read-out: Minimal Inhibiting Concentration (MIC)
Experimental: (§1) In vitro bacteriostatic and fungistatic activities of the macrocycles were evaluated against pathogenic representatives of Gram-positive bacteria (Staphylococcus aureus 209p, Bacillus cereus 8035), Gram-negative bacteria (Pseudomonas aeruginosa 9027, Escherichia coli F-50), and yeast (Trichophyton mentagrophytes var. gypseum 1773, Aspergillus niger BKMF-1119, Candida albicans 885–653). Minimal inhibitory concentrations (MICs) were estimated by conventional dilution methods for bacteria and fungi. The antibacterial and antifungal assays were performed in Hottinger broth (HiMe-dia Laboratories Pvt. Ltd. Mumbai, India) and Sabouraud dextrose broth (HiMedia Laboratories Pvt. Ltd.) (bacteria 3 × 10^5 cfu/mL and yeast 2 × 10^4 cfu/mL). The bactericidal and fungicidal activities were determined as described earlier. The tests were repeated three times.

S. aureus 209P = assay: Bacteriostatic activity (MIC), dilution method; type: cell-based; conditions: Staphylococcus aureus, read-out: Minimal Inhibiting Concentration (MIC)
Experimental: as §1

First inflection / turning point of the tensiometric curve ([1]; 50% DMSO–50% water): 3.3 mM | CAC, tensiometry ([1]; water solution, GCR-2 in the presence of two-fold excess of MG): 3.3 mM | MIC (B. cereus 8035): 250 µM (≈ 343 µg/mL) | MIC (S. aureus 209P): 130 ± 10 µM (≈ 179 µg/mL)
Structure (SMILES): CC1c2cc(c(O)c(CN(C)C[C@@H](O)[C@H](O)[C@@H](O)[C@@H](O)CO)c2O)C(C)c2cc(c(O)c(CN(C)C[C@@H](O)[C@H](O)[C@@H](O)[C@@H](O)CO)c2O)C(C)c2cc(c(O)c(CN(C)C[C@@H](O)[C@H](O)[C@@H](O)[C@@H](O)CO)c2O)C(C)c2cc1c(O)c(CN(C)C[C@@H](O)[C@H](O)[C@@H](O)[C@@H](O)CO)c2O (stereo partly drawn) [GCR-2, N-methyl-D-glucaminemethyl methylcalix[4]resorcinarene]
hemolysis at 1 h, 0.125 mM (Hemolytic activity; concentration 0.125 mM): 21.3 ± 1.7% | hemolysis at 1 h, 0.25 mM (Hemolytic activity; concentration 0.25 mM): 31.6 ± 2.7% | hemolysis at 1 h, 0.5 mM (Hemolytic activity; concentration 0.50 mM): 38.1 ± 3.4% | IC50 (Chang liver cell line): > 100 µM
